In patent US20240252677A1, “ONE-COMPONENT DELIVERY SYSTEM FOR NUCLEIC ACIDS” (The Trustees of the University of Pennsylvania, priority 2021, published 2024):
Marks after values point to notes of the source that are not given here.

How the values were obtained:
[1] = pKa measurements of individual IAJD molecules by titration; type: physicochemical; conditions: ethanol saturated with NaCl, titrated with 0.1 M aqueous HCl, titration
Protocol: pKa measurements of individual IAJD Molecules was performed as follows. IAJD Molecules were first dissolved in ethanol (Sat. with NaCl) at a concentration of 1.5 mg/mL and the solution volume was 3 mL.
Then 0.1 M HCl solution was added to the above ethanol solution with an increment of 7.5 μL. The resulting pH after each addition of HCl solution was measured by an Thermo Scientific Orion Star A121 meter with Thermo Scientific Orion 8220BNWP pH probe. pKa was determined using the half equivalence point titration.

spleen = assay: In vivo mRNA delivery, IVIS imaging of organs: spleen; design: species or system mice; key to Organs with luminescence: spleen: strong: Strong meant the luminescence intensity in that organ was relatively high, compared to other organs; weak: Weak meant the luminescence intensity in that organ was relatively low, compared to other organs; conditions: for Organs with luminescence: spleen (weak/strong): Table 14, imaging 6 h after injection; for Organs with luminescence: spleen: Table 17, mice, IVIS, 4-6 h after injection, intensity relative to other organs
Protocol: The exposure time was 1 min.
Tissue luminescence signal was measured on the IVIS imaging system using an exposure time of 60 seconds using medium binning (binning=8) to ensure that the signal obtained was within operative detection range. […] Bioluminescence imaging was performed as described above.
Tissue luminescence signal was measured on the IVIS imaging system using a certain exposure time (60, 30 or 15 seconds) and medium binning (binning=8) to ensure that the signal obtained was within operative detection range.

[2] = Dimensions (size, PDI) of DNPs co-assembled from IAJDs and Luc-mRNA by DLS; type: physicochemical
Protocol: Dynamic Light Scattering (DLS) for the DNPs was performed in buffer with a Malvern Instruments particle sizer (Zetasizer Nano S, Malvern Instruments, UK) equipped with 4 mW He—Ne laser 633 nm and avalanche photodiode positioned at […] to the beam and temperature-controlled cuvette holder. Instrument parameters were determined automatically along with measurement times.
Formulation of DNPs Containing mRNA-Luc: IAJDs were dissolved in ethanol with various initial concentrations (5-160 mg/mL). Nucleoside-modified mRNA encoding firefly luciferase (mRNA-Luc) was dissolved in water with various initial concentrations (1-4 mg/mL). 12.5 μL of mRNA solution was placed into a clean RNAs free eppendorf (1.5 mL) and mixed with 463 μL of citrate buffer (10 mM, pH 3.0)/acetate buffer (10 mM). For encapsulation of mRNA into IAJDs, 25 μL of IAJDs of the ethanol stock solution was rapidly injected into mRNA solution in citrate or acetate buffer followed by vortex for 5 seconds.
(§1) Dynamic Light Scattering (DLS) for the sizes and polydispersities of DNPs was performed on a Malvern Instruments particle sizer (Zetasizer Nano S, Malvern Instruments, UK) equipped with 4 mW He—Ne laser 633 nm and avalanche photodiode positioned at 1750 to the beam and temperature-controlled cuvette holder. Instrument parameters were determined automatically along with measurement times. Sample solution (0.4 mL) was placed in a semi-micro cuvette (1.6 mL, polystyrene, 10×10×45 mm, manufactured by Greiner Bio-One) and the measurements were performed at 23° C.
Formulation of DNPs obtained by co-assembly of IAJDs and Luc-mRNA was performed as follows. IAJDs were dissolved in ethanol with an initial concentration of 80 mg/mL. Nucleoside-modified mRNA encoding firefly luciferase (Luc-mRNA) was dissolved in UltraPure DNase/RNase-free distilled water with an initial concentration of 4.0 mg/mL. 12.5 μL of Luc-mRNA solution was placed into a clean RNAs free eppendorf (1.5 mL) and 463 μL acetate buffer (10 mM, pH 4.0) was added. Then, 25 μL of IAJD in the ethanol stock solution was rapidly injected into the Luc-mRNA solution in acetate buffer followed by vortex for 5 seconds.
as §1, with “dimensions (sizes” for “sizes”, “polydispersities)” for “polydispersities”, “175°” for “1750”, “set up” for “determined”, “(c.a. 0.4” for “(0.4”, “mm,” for “mm, manufactured by”
Formulation of DNPs Co-assembled from IAJDs and Luc-mRNA: nucleoside-modified mRNA encoding firefly luciferase (Luc-mRNA) was dissolved in UltraPure DNase/RNase-free distilled water with an initial concentration of 4.0 mg/mL. IAJD molecules were dissolved in ethanol with an initial concentration of 80 mg/mL. 12.5 μL of Luc-mRNA solution was taken and placed into a clean RNAs free eppendorf (1.5 mL). Then 463 μL of acetate buffer (10 mM, pH 4.0) was added. Afterwards, 25 μL of IAJD in the ethanol stock solution was taken and rapidly injected into the above Luc-mRNA solution in acetate buffer followed by vortex for 5 seconds.

[3] = Stability of DNPs by DLS after storage at 5° C.; type: physicochemical; design: key to Original size distribution type (DLS curve) / Size distribution type (DLS curve): U: DLS curve showed unimodal size distribution; B: DLS curve showed bimodal size distribution; M: DLS curve showed multimodal size distribution; conditions: for pH Sample: DNPs: IAJD 4.0 mg/mL + Luc-mRNA 0.1 mg/mL, injection in acetate buffer pH 4.00; for PDI / Size (d, nm) / Original size distribution type (DLS curve): IAJD 4.0 mg/mL + Luc-mRNA 0.1 mg/mL; for PDI / Size (d, nm): acetate buffer; for Original size distribution type (DLS curve): before storage, acetate buffer pH 4.00
Protocol: The stability of the DNPs as assayed by DLS. All the samples are prepared in acetate buffer. The stabilities of the constructs were ranked: Excellent (in bold)—the original sizes and distribution remains almost the same after storage; Good—the original relatively big sizes became smaller or broad size distribution became narrower; Not stable—the original relatively big sizes or broad size distribution remained almost the similar level, or the original relatively small sizes became bigger or narrow size distribution became broader.

[4] = Table 15, individual IAJD molecule
[5] = Table 12, DNPs, IAJD 4 mg/mL + Luc-mRNA 0.10 mg/mL, acetate buffer 10 mM pH 4.0
[6] = Table 13, DNPs, IAJD 4 mg/mL + Luc-mRNA 0.10 mg/mL, acetate buffer pH 4.0
[7] = Table 14, DNPs, IAJD 4 mg/mL + Luc-mRNA 0.10 mg/mL, acetate buffer pH 4.0
[8] = Table 16, DNPs from IAJD 4 mg/mL and Luc-mRNA 0.10 mg/mL by injection in acetate buffer (10 mM, pH 4.0)
[9] = Table 17, DNPs used in vivo, IAJD 4 mg/mL, Luc-mRNA 0.10 mg/mL, acetate pH 4.0

Compound | pKa ([1]; individual IAJD molecules) | Organs with luminescence: spleen (spleen) | pH Sample [3] | Original size distribution type (DLS curve) [3] | PDI [2, 8] | Size (d, nm) [2, 8] [nm] | PDI [2, 9] | Size (d, nm) [2, 9] [nm] | Size distribution type (DLS curve) ([3]; after 70 days at 5° C.) | PDI ([3]; after 70 days at 5° C.) | Size (d, nm) ([3]; after 70 days at 5° C.) [nm] | also measured
CCCCC(CC)COc1ccc(COC(=O)CCCN2CCN(C)CC2)cc1OCC(CC)CCCC (stereo not drawn) [IAJD 103, 3,4-Bis((2-ethylhexyl)oxy)benzyl 4-(4-methylpiperazin-1-yl)butanoate] | – | – | – | – | – | – | – | – | – | – | – | pKa [1, 4]: 6.23; Organs with luminescence: spleen (weak/strong) (spleen): spleen (weak); PDI [2, 5]: 0.275; Size (d, nm) [2, 5]: 88 nm; PDI [2, 6]: 0.275; Size (d, nm) [2, 6]: 88 nm; PDI [2, 7]: 0.275; Size (d, nm) [2, 7]: 88 nm
CCCCCCCCCCCCCCOc1cc(CNC(=O)CCCN2CCN(C)CC2)cc(OCCCCCCCCCCCCCC)c1 [IAJD 108, N-(3,5-bis(tetradecyloxy)benzyl)-4-(4-methylpiperazin-1-yl)butanamide] | – | – | – | – | – | – | – | – | – | – | – | pKa [1, 4]: 6.59; Organs with luminescence: spleen (weak/strong) (spleen): spleen (weak); PDI [2, 5]: 0.334; Size (d, nm) [2, 5]: 214 nm; PDI [2, 6]: 0.334; Size (d, nm) [2, 6]: 214 nm; PDI [2, 7]: 0.334; Size (d, nm) [2, 7]: 214 nm
CCCCCCCCCCCOc1cc(COC(=O)c2cc(OCCOCCOCCCC(=O)CCCN3CCCCC3)c(OCCOCCOCCOCc3ccccc3)c(OCCOCCOCCOC(=O)CCCN3CCCCC3)c2)cc(OCCCCCCCCCCC)c1 [IAJD 111] | 7.58 | spleen (weak) | 4.84 | (U) | 0.232 | 99 | 0.232 | 99 | – | – | – | Size distribution type (DLS curve) ([3]; after 75 days at 5° C.): (U); PDI ([3]; after 75 days at 5° C.): 0.227; Size (d, nm) ([3]; after 75 days at 5° C.): 96 nm
CCCCCCCCCCCOc1cc(COC(=O)CCCN2CCN(CCO)CC2)cc(OCCCCCCCC)c1 [IAJD 113, 3-(Octyloxy)-5-(undecyloxy)benzyl 4-(4-(2-hydroxyethyl)piperazin-1-yl)butanoate] | 6.52 | Spleen (strong) | 4.48 | (B)^b | 0.511 | 181 | 0.511 | 181 | (B) | 0.365 | 184 | –
CCCCCCCCCCCOc1cc(COC(=O)CCCN2CCN(CCO)CC2)cc(OCCCCCCCCCC)c1 [IAJD 115, 3-(Decyloxy)-5-(undecyloxy)benzyl 4-(4-(2-hydroxyethyl)piperazin-1-yl)butanoate] | 6.32 | spleen (strong) | 4.44 | (U) | 0.367 | 123 | 0.367 | 123 | (U) | 0.383 | 134 | –
CCCCCCCCCCCCCCCCOc1cc(COC(=O)CCCN2CCN(CCO)CC2)cc(OCCCCCCCCCCC)c1 [IAJD 120, 3-(Hexadecyloxy)-5-(undecyloxy)benzyl 4-(4-(2-hydroxyethyl)piperazin-1-yl)butanoate] | 6.37 | Spleen (strong) | 4.40 | (B) | 0.474 | 212 | 0.474 | 212 | (B) | 0.289 | 177 | –
CCCCCCCCCCCOc1cc(COC(=O)CCCN2CCN(CCO)CC2)cc(OCCCCCCCCC)c1 [IAJD 122, 3-(Nonyloxy)-5-(undecyloxy)benzyl 4-(4-(2-hydroxyethyl)piperazin-1-yl)butanoate] | 6.66 | spleen (strong) | 4.49 | (B) | 0.337 | 215 | 0.337 | 215 | – | – | – | Size distribution type (DLS curve) ([3]; after 62 days at 5° C.): (B); PDI ([3]; after 62 days at 5° C.): 0.346; Size (d, nm) ([3]; after 62 days at 5° C.): 192 nm
CCCCCCCCCCCCOc1cc(COC(=O)CCCN2CCN(CCO)CC2)cc(OCCCCCCCCCCC)c1 [IAJD 124, 3-(Dodecyloxy)-5-(undecyloxy)benzyl 4-(4-(2-hydroxyethyl)piperazin-1-yl)butanoate] | 6.65 | spleen (strong) | 4.51 | (U) | 0.280 | 276 | 0.280 | 276 | – | – | – | Size distribution type (DLS curve) ([3]; after 62 days at 5° C.): (B); PDI ([3]; after 62 days at 5° C.): 0.240; Size (d, nm) ([3]; after 62 days at 5° C.): 284 nm
CCCCCCCCCCCCCCOc1cc(CNC(=O)CCCN2CCN(C)CC2)cc(OCCCCCCCCCCC)c1 [IAJD 133, 4-(4-Methylpiperazin-1-yl)-N-(3-(tetradecyloxy)-5-(undecyloxy)benzyl)butanamide] | 6.57 | spleen (weak) | 4.63 | (B) | 0.414 | 228 | 0.414 | 228 | – | – | – | Size distribution type (DLS curve) ([3]; after 42 days at 5° C.): (B); PDI ([3]; after 42 days at 5° C.): 0.454; Size (d, nm) ([3]; after 42 days at 5° C.): 216 nm
